# Assay results: ChEMBL document CHEMBL2203177, “Tuning the activity of a short arg-trp antimicrobial Peptide by lipidation of a C- or N-terminal lysine side-chain” (ACS Med Chem Lett, 2012)
# Peptide text beside a SMILES is read from it. * marks the point of attachment. Octanoyl = CCCCCCCC(=O)*
# Legend:
# [1] = tested on: MCF7; test: Selectivity index, ratio of IC50 for human GM5657 cells to IC50 for human MCF7 cells; assay type: functional
# [2] = Ratio of IC50 for human GM5657 cells to MIC for Staphylococcus aureus DSM 20231; assay type: functional
# [3] = Selectivity index, ratio of IC50 for human GM5657 cells to IC50 for human HT29 cells; assay type: functional
# [4] = Cytotoxicity against human GM5657 cells assessed as inhibition of cell viability after 48 hrs by crystal violet assay; assay type: cell-based; conditions: GM5657, 48 h
# [5] = tested on: HT-29; test: Cytotoxicity against human HT-29 cells assessed as inhibition of cell viability after 48 hrs by crystal violet assay; assay type: functional, cell-based; conditions: HT-29, 48 h
# [6] = tested on: MCF7; test: Cytotoxicity against human MCF7 cells assessed as inhibition of cell viability after 48 hrs by crystal violet assay; assay type: functional, cell-based; conditions: MCF7, 48 h
# [7] = Hemolytic activity against human RBC assessed as hemoglobin leakage at 500 ug/ml after 5 mins; assay type: ADME, cell-based, Erythrocyte; conditions: human red blood cells, read-out: Activity
# [8] = tested on: Bacillus subtilis; test: Bactericidal activity against Bacillus subtilis 168 (trpC2)2 assessed as survival rate at twice MIC concentration incubated for 15 mins measured after 18 hrs; assay type: functional, subsp. subtilis str. 168 (trpC2)2
# [9] = Hemolytic activity against human RBC assessed as hemoglobin leakage; assay type: ADME, cell-based, Erythrocyte; conditions: human red blood cells
# [10] = Hemolytic activity against human RBC assessed as hemoglobin leakage at 250 ug/ml; assay type: ADME, cell-based, Erythrocyte; conditions: human red blood cells, read-out: Activity
# [11] = tested on: Bacillus subtilis; test: Antibacterial activity against Bacillus subtilis 168 DSM 402 assessed as growth inhibition after 18 hrs; assay type: functional; conditions: subsp. subtilis str. 168 DSM 402, 18 h
# [12] = tested on: Staphylococcus aureus; test: Antibacterial activity against Staphylococcus aureus ATCC 43300 assessed as growth inhibition after 18 hrs; assay type: functional; conditions: ATCC 43300, 18 h
# [13] = tested on: Staphylococcus aureus; test: Antibacterial activity against Staphylococcus aureus DSM 20231 assessed as growth inhibition after 18 hrs; assay type: functional; conditions: DSM 20231, 18 h
# [14] = tested on: Pseudomonas aeruginosa; test: Antibacterial activity against Pseudomonas aeruginosa DSM 50071 assessed as growth inhibition after 18 hrs; assay type: functional; conditions: DSM 50071, 18 h
# [15] = tested on: Acinetobacter baumannii; test: Antibacterial activity against Acinetobacter baumannii DSM 30007 assessed as growth inhibition after 18 hrs; assay type: functional; conditions: DSM 30007, 18 h
# [16] = tested on: Escherichia coli; test: Antibacterial activity against Escherichia coli DSM 30083 assessed as growth inhibition after 18 hrs; assay type: functional; conditions: DSM 30083, 18 h
smiles,measurement,setting,value
CCCCCCCC(=O)NCCCC[C@H](NC(=O)[C@H](Cc1c[nH]c2ccccc12)NC(=O)[C@H](CCCNC(=N)N)NC(=O)[C@H](Cc1c[nH]c2ccccc12)NC(=O)[C@H](CCCNC(=N)N)NC(=O)[C@H](Cc1c[nH]c2ccccc12)NC(=O)[C@@H](N)CCCNC(=N)N)C(N)=O (H-RWRWRWK(Octanoyl)-NH2),Ratio IC50,[1],7
same,Ratio IC50,[2],15
same,Ratio IC50,[3],7
same,IC50,[4],31.3 µM
same,IC50,[5],4.5 µM
same,IC50,[6],4.7 µM
same,"hemolysis at 5 min, 500 ug/ml",[7],48%
same,Survival,[8],0.261%
same,HC50,[9],285 µM
same,hemolysis at 250 ug/ml,[10],10%
same,MIC,[11],0.6 µM
same,MIC,[12],2 µM
same,MIC,[13],2 µM
same,MIC,[14],18 µM
same,MIC,[15],5 µM
same,MIC,[16],2 µM
